These results are taken from patent US20020028849A1, “Use of retinol in assisted-reproduction protocols” (priority 2000, published 2002).

The test system of series [1] is superovulated ewes (embryos recovered at the morula stage). Briefly: Experiment 1: retinoid treatment of superovulated ewes, in vitro development of recovered morula-stage embryos. The series is classed as in vivo, sheep. The conditions noted are these: for embryo quality score (grade 1=excellent to 4=degenerate) immediately after collection / in vitro blastocyst formation / embryonic hatching rate in vitro: ROH 500,000 IU, RA 15 mg; for embryo quality score (grade 1=excellent to 4=degenerate) immediately after collection / in vitro blastocyst formation: CIS 15 mg on first and last day of FSH; for embryo quality score (grade 1=excellent to 4=degenerate) immediately after collection: morula stage; for in vitro blastocyst formation: morulae cultured 72 h in TCM 199; for embryonic hatching rate in vitro: CIS 15 mg, morulae cultured 72 h. As to the method:
(§1) Referring now to FIGS. 1 and 2, a series of experiments were carried out to examine the effect of retinoid administration on superovulated sheep. In these experiments, the estrous cycles of sexually mature crossbred ewes were synchronized using progestin implants (Synchromate B) combined with prostaglandin F2-alpha (Lutalyse) injections, and superovulation was induced by multiple FSH injections. Briefly, animals were administered one progestin implant and 6 days later received two Lutalyse injections (15 mg i.m.) 12 hours apart. Superovulation was induced using a total of 24 units of FSH administered twice daily in decreasing doses over 3 days (5.5, 4.4, 3.3 units per injection, respectively) beginning 9-11 days after implant administration. Retinoid treatments were administered on the first and last day of FSH injections. Implants were removed at the time of the fifth FSH injection, and animals were checked for estrus 24 hours later. […] All animals were maintained on high-quality hay and fed ad libitum, with free-choice access to a sheep and goat mineral premix that contained 1 million IU vitamin A per pound.
In the first experiment, performed under decreasing day length (fall), 25 ewes were randomly assigned to one of the following treatments: (1) all-trans retinol (ROH; 500,000 IU, n=6); (2) all-trans retinoic acid (RA; 15 mg, n=6); (3) 9-cis retinoic acid (CIS; 15 mg, n=7); or (4) vehicle (Control; n=6), which was corn oil. Animals were surgically ovohysterectomized at 144 hours post-implant removal, and uteri were gently flushed twice with culture medium (tissue culture medium 199 [TCM 199]) to collect morula stage embryos. Two ewes from the RA group wer dropped from the study: one because of a total lack of response to the FSH treatment, the other because of overstimulation resulting in more than 50 ovulations with none of the ova fertilizing. This left 4 animals in the RA group, 5 in each of the ROH and Control groups, and 7 in the CIS group.
Embryos (morulae) collected in experiments 1 and 2 were categorized according to morphology, developmental stage, and quality based on a procedure developed for bovine embryos. See, Lindner and Wright, Theriogenology 1983; 20:407-416. Quality grades ranged from 1 to 4, with 1=excellent, 2=good, 3=poor, and 4=degenerate. One individual, who was unaware of treatments at the time, performed all of the grading.
In the first two experiments, morula-stage embryos were cultured in TCM 199 with Earle's salt supplemented with 10% FBS and 1 mM glutamine. See, Bavister BD. Studies on the developmental blocks in cultured hamster embryos. In: Bavister BD (ed.), The Mammalian Preimplantation Embryo: Regulation of Growth and Differentiation in vitro. New York:Plenum Press; 1987:219-249. The FBS had been twice stripped of low molecular weight molecules with charcoal, and retinol concentrations were below detection levels as determined by fluorescent analysis. See, Selvaraj and Susheela, Clin Chim Acta 1970; 27:165-170. In the third experiment, 1- to 4-cell embryos were cultured in SOF supplemented with 3 mg/ml BSA and essential and nonessential amino acids. See, Carolan et al., Theriogenology 1995; 43:1115-1128. Both media were prepared weekly, filtered through a 0.2 um filter, and allowed to equilibrate for 2 hours in a humidified atmosphere at 38.5° C. containing 5% CO2 in air.
Morula-stage embryos (experiments 1 and 2) were washed a minimum of three times in the outer well of organ culture dishes and then transferred with a minimum amount of medium into the inner well, which contained 3 ml of TCM 199. Embryos from each ewe were cultured in one dish, and there were no significant differences in the average number of embryos per dish between treatments. Embryos were cultured for 96 hours and observed daily for blastocyst formation and complete hatching from the zona pellucida. No further development was observed after 72 hours in culture, and all data presented reflect that time period. […]

Series [2] concerns superovulated ewes (1- to 4-cell embryos). Briefly: Experiment 3: ROH treatment of superovulated ewes, in vitro development of 1- to 4-cell embryos. It is filed as in vivo, sheep. The note with it: 1- to 4-cell embryos cultured in SOF. As to the method:
as §1
The third study involved two identical experiments performed sequentially in the fall and winter. Results were not different between seasons, and the data were combined. A total of 24 ewes, not used in the previous experiments, received either ROH (n=12) or Control (n=12) treatment in combination with FSH, followed by natural mating at estrus, as in experiment 2. At 84 hours post-implant removal, ewes were salphincectomized and oviducts gently flushed with culture medium in order to recover 1- to 4-cell embryos.
In the first two experiments, morula-stage embryos were cultured in TCM 199 with Earle's salt supplemented with 10% FBS and 1 mM glutamine. See, Bavister BD. […] The FBS had been twice stripped of low molecular weight molecules with charcoal, and retinol concentrations were below detection levels as determined by fluorescent analysis. […]
(§2) Data were checked for normality and analyzed using the Statistical Analysis System (SAS Institute Inc., Cary, N.C.). […]

The conditions of series [3]: cited from earlier work.
Series [4] deals with recipient ewes receiving embryos from treated donor ewes. Briefly: Pregnancy rates after transfer of frozen embryos from retinol-treated superovulated ewes. It is filed as in vivo, sheep. The source says:
Twenty-four ewes were synchronized, superovulated and administered treatments, as described previously (Eberhardt, Will and Godkin. Biol Reprod 60, 1483-1487, 1999). Briefly, animals received a progestagen implant and six days later received two injections of prostaglandin F2-alpha (Lutalyse, Upjohn Co. Kalamazoo, Mich.) twelve hours apart. Superovulation was induced with 24 units of porcine follicle stimulating hormone (FSH, Sioux Biochemical, Sioux City, Iowa) in decreasing doses over 3 days beginning 9-11 days after implant administration. All-trans retinol was administered to twelve ewes in corn oil at 500,000 IU per injection on the first and last day of FSH injections. Control ewes (12) received corn oil without retinol.
Embryos at the morula stage of development (168 h post implant removal) were collected by gently flushing the uterus with phosphaste-buffered saline+2% bovine serum albumin (BSA) following surgical hysterectomy. Embryos were frozen by conventional methods (Leibo. Theriogenology 21: 767. 1984) using ethylene glycol as the cryoprotectant in a programmable freezer and stored in liquid N2. After three months, embryos were thawed briefly (30 seconds) at 37° C. and two embryos were transferred directly into the uterine horn of synchronized recipient ewes. Seven recipient ewes received embryos from retinol-treated ewes and 11 recipient ewes received embryos from control ewes. Pregnancy rates were determined by ultrasonography 30-40 days after transfer.

The subject of series [5] is superovulated ewes (embryos recovered at the morula stage). Put plainly: Experiment 2: ROH treatment of superovulated ewes (winter), in vitro development of morula-stage embryos. The series is classed as in vivo, sheep. How it is done: as §1
The second experiment was a repetition of the first, with the exceptions that it was performed under increasing day length (winter) and only the ROH and Control treatments were administered (in combination with FSH) to 24 ewes (12 per treatment) not used in the previous experiment. One ewe from the Control group was dropped from the study for failure to respond to FSH treatment. […]
In the first two experiments, morula-stage embryos were cultured in TCM 199 with Earle's salt supplemented with 10% FBS and 1 mM glutamine. […] The FBS had been twice stripped of low molecular weight molecules with charcoal, and retinol concentrations were below detection levels as determined by fluorescent analysis. […]
as §2

Series [6] has as its system in vitro produced bovine embryos (presumptive zygotes). Put plainly: In vitro retinol treatment of presumptive zygotes, blastocyst formation. It is filed as cell-based. The conditions noted are these: 7-8 days culture. How it is done: The effects of retinol and retinoic acid on early embryonic development of in vitro produced bovine embryos were investigated. Oocytes and their surrounding cumulus cells were collected from bovine ovaries, matured in vitro for 24 h and fertilized by standard procedures for 8-10 h. Presumptive zygotes were denuded of cumulus cells, washed and cultured in modified synthetic oviduct fluid (a standard culture medium) in the presence or absence of retinol ([…]) at 38.5° C. in a humidified atmosphere of 5% CO2 in air. Embryos were cultured for 7-8 days.
Blastocyst (a fluid filled ball of approximately 100 cells, containing a inner cell mass which gives rise to the fetus and a trophoblast which gives rise to the placenta) formation was used as an end point for in vitro development. The above experiment was performed three times using 210 embryos in each treatment group with 70 embryos/group (630 total, 210/treatment). Embryonic development to the blastocyst stage, expressed as % blastocyst/cleaved embryos, was control (no retinol)=28.33%, 1 uM Retinol=48.66%, 10 uM Retinol=57.33%.

For the compound `CC1=C(/C=C/C(C)=C\C=C\C(C)=C\C(=O)O)C(C)(C)CCC1` [CIS, 9-cis retinoic acid], in series [1], the “embryo quality score (grade 1=excellent to 4=degenerate) immediately after collection” value came to 2.4±0.2, the “in vitro blastocyst formation” value was 33% and the “embryonic hatching rate in vitro” value is listed as 38%.
`CC1=C(/C=C/C(C)=C/C=C/C(C)=C/C(=O)O)C(C)(C)CCC1` [RA, all-trans retinoic acid]: in series [1], the “in vitro blastocyst formation” value worked out at 27% and the “embryonic hatching rate in vitro” value came to 55%.
For `CC1=C(/C=C/C(C)=C/C=C/C(C)=C/CO)C(C)(C)CCC1` [ROH, all-trans retinol], in series [1], the “embryo quality score (grade 1=excellent to 4=degenerate) immediately after collection” value was 1.9±0.1, the “in vitro blastocyst formation” value was 72% and the “embryonic hatching rate in vitro” value is 73%. The “fold increase in in vitro blastocyst formation compared to RA, CIS or Control animals” value in series [1] (p<0.05) is reported as “greater than 2 fold”. For the same compound, the blastocyst hatching in series [2] worked out at 71%. Also, in series [2] (n=230 embryos, p<0.05), the blastocyst formation amounted to 79%. For the same compound, the “embryos that progressed through the 8-cell in vitro block” value in series [2] (p<0.05) is recorded as 94%. For the same compound, the “solubility in ethanol, methanol, ether, fats, and oil” value in series [3] (ethanol, methanol, ether, fats, oil) was “soluble”. Besides, in series [3] (water or aqueous salt solutions), the “solubility in water or aqueous salt solutions” value is on record as “practically insoluble”. In addition, the “pregnancy rate of recipient ewes” value in series [4] (donors given 500,000 IU per injection on first and last day of FSH, two frozen-thawed embryos transferred, ultrasonography 30-40 days after transfer) is listed as 86%. The “number of the six pregnant recipient ewes carrying twins” value in series [4] (embryos from retinol-treated donor ewes) was “five”. Further, in series [4] (embryos from retinol-treated donor ewes, 30-40 days after transfer), the “survival of all transferred embryos” value is 78.6%. The “fold increase in hatching rate in comparison with vehicle treatment” value in series [5] is around 3 fold. In addition, the hatching rate in series [5] (ROH treatment of donor ewes, p<0.05) is reported as 70%. For the same compound, the “percentage of embryos that formed blastocysts” value in series [5] (ROH treatment of donor ewes, winter, n=243 embryos) turned out to be 70%. For the same compound, the “embryonic development to the blastocyst stage, % blastocyst/cleaved embryos” value in series [6] (1 uM Retinol in modified synthetic oviduct fluid) is on record as 48.66%. The “embryonic development to the blastocyst stage, % blastocyst/cleaved embryos” value in series [6] (10 uM Retinol in modified synthetic oviduct fluid) worked out at 57.33%.
